From patent US4687864A, “5-fluoro-3-oxa-prostacyclin compounds” (G. D. Searle & Co., priority 1985, dated 1987)
pIC50: −log10 of the molar value.

Columns and labels:
[1] = test system: ADP-Induced platelet aggregation; assay: Inhibition of ADP-induced platelet aggregation, in vitro (platelet rich plasma); format: cell-based; conditions: Rattus norvegicus, compound preincubated 1 minute, read-out: Results (IC50 (Molar))
Protocol: Inhibition of ADP-Induced platelet aggregation, in vitro.
Aggregation was determined using a Payton Dual Channel Aggregation Module. A Riker-Denshi recorder was used fo recording the aggregation curves.
The addition of ADP to platelet-rich plasma induces platelet aggregation.
After the PRP fraction was removed, the remainder was spun at 900×g for 15 mins. to obtain platelet poor plasma (PPP) (1800 RPM in IEC PR 6000). The number of platelets per ml PRP is determined by counting a 50 μl aliquot of PRP in a Coutter ZBI counter and channelyzer Model C-1000.
PRP is diluted with PPP 1:2 to obtain a count of approx. 25000 on the screen or 10^9 platelets/ml PRP to evaluate the anti-aggregating agent. The module was standardized with an aliquot of PPP and that of diluted PRP.
The aggregating agent used is ADP prepared as follows:
Prostacyclin is used as the standard of antiaggregatory activity for determining the potency of compounds tested. A 10^2 M solution (to give a starting concentration of 10^-4 M when 4 μL is added to 400 μL PRP) is diluted serially to obtain solutions with final concentrations of 10^-6, 10^-7, 10^-8, 10^-9 M.
Determine the dose of ADP which on a standard curve would be on the linear portion and allow reversal of the aggregation curve.
Determine the PGI2 standard curve of percentage inhibition of aggregation. Use saline in control cuvette to compare the extent of inhibition by PGI2 are represented by the depth of the aggregation curve. Allow the PRP to preincubate for approximately one minute prior to the addition of prostacyclin and another minute with PGI2 prior to the addition of ADP.
The % inhibition is plotted against prostacyclin dose on semilog paper.
The test compound is added to PRP and preincubated for 1 minute prior to ADP administration.

[2] = test system: ulcerogenic effect induced by certain non-steriodal and steroidal anti-inflammatory agents; conditions: rats, concomitant oral administration; cited from earlier work
[3] = physiological pH; cited from earlier work
platelet aggregation = conditions: background, cited from earlier work

Structure (SMILES) | pIC50 [1] | ulcerogenic effect induced by anti-inflammatory agents [2] | further results
CCCCC[C@H](O)/C=C/[C@@H]1[C@H]2C=C(C(F)COCC(=O)OC(C)(C)C)O[C@H]2C[C@H]1O (relative stereo) [1,1-Dimethylethyl(3aS,3aα,6aα)[2-fluoro-2-[4,5,6,6aα-tetrahyro-5β-hydroxy-4α-(3S*-hydroxy-1E-octenyl)-3aS,3aαH,-cyclopenta[b]furanyl]ethoxy]acetate] | 5.40 | – | –
CCCCC[C@H](O)/C=C/[C@@H]1[C@H]2C/C(=C/COCC(=O)OC(C)(C)C)O[C@H]2C[C@H]1O (relative stereo) [3-oxa prostacyclin Tert-butyl ester, 1,1-Dimethylethyl(3aS,3aα,6aα)[2-[hexahydro-5β-hydroxy-4α-(3S*-hydroxy-1E-octenyl)-2H-cyclopenta-[b]furan-2Z-ylidene]ethoxy]acetate] | 6.00 | – | –
CCCCC[C@H](O)CC[C@H]1[C@H](O)CC(=O)[C@@H]1CCCCCCC(=O)O [13, 14-dihydro-PGE1] | – | inhibited | –
CCCCC[C@H](O)/C=C/[C@H]1[C@H](O)CC(=O)[C@@H]1CCCCCCC(=O)O [PGE1] | – | inhibited | –
CCCCC[C@H](O)/C=C/[C@H]1[C@H](O)CC(=O)[C@@H]1C/C=C\CCCC(=O)O [PGE2] | – | inhibited | –
CC/C=C\C[C@H](O)/C=C/[C@H]1[C@H](O)CC(=O)[C@@H]1C/C=C\CCCC(=O)O [PGE3] | – | inhibited | –
CCCCC[C@H](O)/C=C/[C@@H]1[C@H]2C/C(=C/CCCC(=O)O)O[C@H]2C[C@H]1O [Prostacyclin, (5Z)-9-deoxy-6,9α-epoxy-Δ^5 -PGF1] | 8.22 | – | half period of its activity [3]: only about several minutes; duration of antiplatelet aggregation effect (platelet aggregation): short lived; hypotensive effects (platelet aggregation): often affords unwanted hypotensive effects; doses required for platelet aggregation inhibiting action and antihypertensive action (platelet aggregation; selectivity of action): almost equal to each other
